Where “and” joins values, the source holds several entries; their conditions need not be identical. Equal entries are not always repeated.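 Results reflect a 48-hour exposure of cells in 96-well plates to compound at five concentrations. Abbreviation: GI50, concentration required for 50% inhibition of growth. TGI: total growth inhibition.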
How the values were obtained:
Assay in all cases: NCI tumour cell line growth inhibition, 48 h
A549 NSCLC = system: A549 NSCLC
MOLT-4 leukemia = system: MOLT-4 leukemia
OVCAR-4 ovarian = system: OVCAR-4 ovarian
SF-268 CNS = system: SF-268 CNS
TK-10 renal = system: TK-10 renal
U251 CNS = system: U251 CNS
ACHN renal = system: ACHN renal
BT-549 breast = system: BT-549 breast
HS 578T breast = system: HS 578T breast
MCF7 breast = system: MCF7 breast

SMILES | TGI (A549 NSCLC) | TGI (MOLT-4 leukemia) | TGI (OVCAR-4 ovarian) | TGI (SF-268 CNS) | TGI (TK-10 renal) | TGI (U251 CNS) | TGI (ACHN renal) | GI50 (TK-10 renal) | TGI (BT-549 breast) | TGI (HS 578T breast) | TGI (MCF7 breast) | GI50 (A549 NSCLC) | GI50 (ACHN renal) | GI50 (BT-549 breast) | GI50 (MCF7 breast) | GI50 (MOLT-4 leukemia) | GI50 (OVCAR-4 ovarian) | GI50 (SF-268 CNS) | GI50 (U251 CNS) | GI50 (HS 578T breast)
CN(C)c1ccc(/C=c2\sc3nnc(-c4ccco4)n3c2=O)cc1 | > 100 µM | > 100 µM | > 100 µM | > 100 µM | > 100 µM | > 100 µM | – | – | – | – | – | – | – | – | – | – | – | – | – | –
O=C1c2ccccc2-c2c3c(cc4ccnc1c24)OCO3 | 14.3 µM and 17.4 µM | 15.6 µM and > 100 µM | 69.7 µM and > 100 µM | 47.1 µM and > 100 µM | – | 35.1 µM and > 100 µM | 24 µM and 29.3 µM | 3.02 µM and 10.2 µM | – | – | – | – | – | – | – | – | – | – | – | –
COc1ccc(/C=C/c2cc(OC)c(OC(C)=O)c(OC)c2)cc1 | > 100 µM | 95.9 µM | > 100 µM | > 100 µM | – | 38.4 µM | > 100 µM | – | – | – | – | – | – | – | – | – | – | – | – | –
Cc1ccc(NCC2(/N=C/c3ccccc3)OC(CO)C(O)C2O)cc1 (stereo unspecified) | > 100 µM | > 100 µM | > 100 µM | > 100 µM | > 100 µM | 83.7 µM | > 100 µM | – | – | – | – | – | – | – | – | – | – | – | – | –
CSC(=O)C[C@@]12O[C@@H]([C@@H](C)C3CCC4[C@@H]5C(O)CC6=CC(=O)C=C[C@]6(C)C5CC[C@@]43C)C[C@](C)(O1)C(C)(C)O2 (stereo partly specified) | 32 µM | – | 28.3 µM | 34.6 µM | 34.8 µM | 25.2 µM | – | – | – | – | – | – | – | – | – | – | – | – | – | –
O=C1Nc2c(Cl)cc(Cl)cc2/C1=N/N=C/c1ccco1 | > 100 µM | > 100 µM | > 100 µM | – | > 100 µM | > 100 µM | > 100 µM | – | 60.6 µM | > 100 µM | > 100 µM | – | – | – | – | – | – | – | – | –
O=S(=O)(N=C1C(Cl)=C(Cl)C(=NS(=O)(=O)c2ccccc2)C(Cl)=C1Cl)c1ccccc1 | > 100 µM | > 100 µM | > 100 µM | 42.2 µM | 61.9 µM | 54 µM | 65 µM | 24.9 µM | 37.5 µM | – | > 100 µM | 32.3 µM | 20.5 µM | 17.3 µM | 18 µM | 27 µM | 22.1 µM | 16 µM | 19.3 µM | –
Oc1ccccc1-c1nn(CNc2ccc(Cl)cc2)c(=S)o1 | 99.2 µM | 74 µM | – | > 100 µM | > 100 µM | > 100 µM | – | 1.53 µM | > 100 µM | > 100 µM | > 100 µM | 26.3 µM | – | 61.1 µM | 4.17 µM | 20.7 µM | – | 9.2 µM | 31.9 µM | > 100 µM
CCCCN(CC)C(=O)C(=O)Cc1nc2ccc(C(=O)c3ccccc3)cc2[nH]c1=O | > 100 µM | > 31.6 µM | > 100 µM | > 100 µM | > 100 µM | > 100 µM | > 100 µM | – | – | – | – | – | – | – | – | – | – | – | – | –
CSc1cc([C@@H]2C[C@H]2c2ccc(Cl)cc2)on1 | > 100 µM | > 100 µM | > 100 µM | 46.3 µM | 31.5 µM | 32.3 µM | > 100 µM | 12.5 µM | 62 µM | – | 41 µM | 21.6 µM | 13.9 µM | 23.9 µM | 16.3 µM | 28.6 µM | 31.3 µM | 21 µM | 9.24 µM | –
O=[N+]([O-])c1nccn1CC(O)c1ccccc1 (stereo unspecified) | > 100 µM | > 100 µM | > 100 µM | > 100 µM | > 100 µM | > 100 µM | > 100 µM | – | – | – | – | – | – | – | – | – | – | – | – | –

— PubChem BioAssay (NCI)
